Measured values from PubChem BioAssay AID248 (DTP/NCI, 2004).
“And” between values parts separate entries of the source, which are not always exact repeats. Equal values may be shown once. Toxic doses and inconclusive results are not listed. No stated cut-off is given here; in the data, active means T/C of 150% or more; inactive means T/C below 125%.

Tested on: L1210 leukemia ip in BDF1 mice, survival T/C
Assay: NCI In Vivo Anticancer Drug Screen. Data for tumor model L1210 Leukemia (intraperitoneal) in B6D2F1 (BDF1) mice
Details: endpoint: mean survival time, higher = longer survival
Procedure, shortened: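 Transplantable tumor model; survival measured in treated vs vehicle control mice. Value = treated/control.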

[1] = dose: 75.0 mg/kg/injection, schedule: Q04DX003 (ip), vehicle: Klucel (hydroxypropylcellulose) (HPC)
[2] = dose: 100.0 mg/kg/injection, schedule: Q01DX001 (ip), vehicle: saline
[3] = dose: 200.0 mg/kg/injection, schedule: Q01DX001 (ip), vehicle: saline
[4] = dose: 400.0 mg/kg/injection, schedule: Q01DX001 (ip), vehicle: saline
[5] = dose: 100.0 mg/kg/injection, schedule: Q04DX003 (ip), vehicle: Klucel (hydroxypropylcellulose) (HPC)
[6] = dose: 200.0 mg/kg/injection, schedule: Q04DX003 (ip), vehicle: Klucel (hydroxypropylcellulose) (HPC)
[7] = dose: 400.0 mg/kg/injection, schedule: Q04DX003 (ip), vehicle: Klucel (hydroxypropylcellulose) (HPC)

Measured: T/C

O=C(O)/C(=C\c1cccc(Br)c1)c1ccccc1
inactive: [1] 104 % of control | dose: 100.0 mg/kg/injection, schedule: Q01DX001 (ip), vehicle: Klucel (hydroxypropylcellulose) (HPC) 105 % of control | dose: 150.0 mg/kg/injection, schedule: Q04DX003 (ip), vehicle: Klucel (hydroxypropylcellulose) (HPC) 96 % of control | dose: 200.0 mg/kg/injection, schedule: Q01DX001 (ip), vehicle: Klucel (hydroxypropylcellulose) (HPC) 97 % of control | dose: 300.0 mg/kg/injection, schedule: Q04DX003 (ip), vehicle: Klucel (hydroxypropylcellulose) (HPC) 105 % of control | dose: 400.0 mg/kg/injection, schedule: Q01DX001 (ip), vehicle: Klucel (hydroxypropylcellulose) (HPC) 97 % of control

CN(C)P1(N)=NP(N)(N(C)C)=NP(N)(N(C)C)=N1 (stereo not drawn)
inactive: dose: 100.0 mg/kg/injection, schedule: Q01DX009 (ip), vehicle: saline 98 % of control | dose: 200.0 mg/kg/injection, schedule: Q01DX009 (ip), vehicle: saline 95 % of control | dose: 400.0 mg/kg/injection, schedule: Q01DX009 (ip), vehicle: saline 93 % of control

CC(=O)C1C=NC(C)(C)C(C)(C)N=CC(C(C)=O)C(C)=NCCCN=C1C.[Ni] (stereo not drawn)
inactive: dose: 12.5 mg/kg/injection, schedule: Q04DX002 (ip), vehicle: saline 97 % of control | dose: 25.0 mg/kg/injection, schedule: Q04DX002 (ip), vehicle: saline 97 % of control

C#CC(C)(O)CC (stereo not drawn)
inactive: [2] 100 % of control | [3] 100 % of control | [4] 103 % of control

CCN(CC)C(=O)Nc1cc2c3c(c1)CCCN3CCC2
inactive: dose: 50.0 mg/kg/injection, schedule: Q04DX002 (ip), vehicle: saline with Tween-80 96 % of control | dose: 100.0 mg/kg/injection, schedule: Q04DX002 (ip), vehicle: saline with Tween-80 93 % of control | dose: 200.0 mg/kg/injection, schedule: Q04DX002 (ip), vehicle: saline with Tween-80 90 % of control | dose: 400.0 mg/kg/injection, schedule: Q04DX002 (ip), vehicle: saline with Tween-80 114 % of control

CCCCCOC(c1ccc2c(c1)OCO2)C(C)Br (stereo not drawn)
inactive: dose: 100.0 mg/kg/injection, schedule: Q04DX002 (ip), vehicle: saline 96 % of control | dose: 200.0 mg/kg/injection, schedule: Q04DX002 (ip), vehicle: saline 104 % of control | dose: 400.0 mg/kg/injection, schedule: Q04DX002 (ip), vehicle: saline 90 % of control

COc1c2c(c(OC)c3ccccc13)C(=O)c1ccccc1C2=O
inactive: dose: 50.0 mg/kg/injection, schedule: Q01DX005 (ip), vehicle: saline 94 % of control | dose: 100.0 mg/kg/injection, schedule: Q01DX005 (ip), vehicle: saline 91 % of control | dose: 200.0 mg/kg/injection, schedule: Q01DX005 (ip), vehicle: saline 91 % of control

N#C/C(=C/c1cc([N+](=O)[O-])c(O)c([N+](=O)[O-])c1)C(N)=O
inactive: dose: 75.0 mg/kg/injection, schedule: Q01DX001 (ip), vehicle: saline 96 % of control | dose: 150.0 mg/kg/injection, schedule: Q01DX001 (ip), vehicle: saline 98 % of control | dose: 300.0 mg/kg/injection, schedule: Q01DX001 (ip), vehicle: saline 95 % of control

c1ccc(P(CC[As](c2ccccc2)c2ccccc2)CC[As](c2ccccc2)c2ccccc2)cc1
inactive: [5] 93 % of control | [6] 93 % of control | [7] 96 % of control

O=CNC1CCCCC1
inactive: dose: 20.0 mg/kg/injection, schedule: Q01DX009 (ip), vehicle: saline with Tween-80 93 % of control | dose: 40.0 mg/kg/injection, schedule: Q01DX001 (ip), vehicle: saline with Tween-80 100 % of control | dose: 40.0 mg/kg/injection, schedule: Q01DX009 (ip), vehicle: saline with Tween-80 93 % of control | dose: 80.0 mg/kg/injection, schedule: Q01DX001 (ip), vehicle: saline with Tween-80 100 % of control | dose: 80.0 mg/kg/injection, schedule: Q01DX009 (ip), vehicle: saline with Tween-80 91 % of control

Nc1ncnc2sc3c(c12)CCc1ccccc1-3
inactive: dose: 50.0 mg/kg/injection, schedule: Q01DX009 (ip), vehicle: Klucel (hydroxypropylcellulose) (HPC) 92 % of control | dose: 100.0 mg/kg/injection, schedule: Q01DX009 (ip), vehicle: Klucel (hydroxypropylcellulose) (HPC) 98 % of control | dose: 200.0 mg/kg/injection, schedule: Q01DX009 (ip), vehicle: Klucel (hydroxypropylcellulose) (HPC) 95 % of control

C=C(C)C(O)CC(C)C (stereo not drawn)
inactive: dose: 100.0 mg/kg/injection, schedule: Q01DX001 (ip), vehicle: carboxymethylcellulose (CMC) 100 % of control | dose: 200.0 mg/kg/injection, schedule: Q01DX001 (ip), vehicle: carboxymethylcellulose (CMC) 100 % of control | dose: 400.0 mg/kg/injection, schedule: Q01DX001 (ip), vehicle: carboxymethylcellulose (CMC) 94 % of control

CC(C)(CO)N=Cc1cc([N+](=O)[O-])ccc1O
inactive: [2] 110 % of control | [3] 107 % of control | [4] 110 % of control

c1ccc(P(CCP(c2ccccc2)c2ccccc2)CCP(c2ccccc2)c2ccccc2)cc1
inactive: [5] 91 % of control | [6] 96 % of control | [7] 96 % of control

O=C(O)CCCCCCCCCCNC(=O)Nc1cccc(C(F)(F)F)c1
inactive: dose: 100.0 mg/kg/injection, schedule: Q01DX001 (ip), vehicle: gum acacia 92 % of control and 96 % of control | dose: 100.0 mg/kg/injection, schedule: Q01DX009 (ip), vehicle: gum acacia 92 % of control | dose: 100.0 mg/kg/injection, schedule: Q04DX002 (ip), vehicle: gum acacia 93 % of control and 88 % of control | dose: 100.0 mg/kg/injection, schedule: Q04DX003 (ip), vehicle: gum acacia 93 % of control and 89 % of control and 90 % of control | dose: 200.0 mg/kg/injection, schedule: Q01DX001 (ip), vehicle: gum acacia 94 % of control and 89 % of control | dose: 200.0 mg/kg/injection, schedule: Q01DX009 (ip), vehicle: gum acacia 93 % of control | dose: 200.0 mg/kg/injection, schedule: Q04DX002 (ip), vehicle: gum acacia 92 % of control and 89 % of control | dose: 200.0 mg/kg/injection, schedule: Q04DX003 (ip), vehicle: gum acacia 93 % of control and 97 % of control and 88 % of control | dose: 400.0 mg/kg/injection, schedule: Q01DX001 (ip), vehicle: gum acacia 92 % of control and 96 % of control | dose: 400.0 mg/kg/injection, schedule: Q01DX009 (ip), vehicle: gum acacia 93 % of control | dose: 400.0 mg/kg/injection, schedule: Q04DX002 (ip), vehicle: gum acacia 86 % of control and 90 % of control | dose: 400.0 mg/kg/injection, schedule: Q04DX003 (ip), vehicle: gum acacia 94 % of control and 88 % of control

COC(=O)/C=C(\C)Sc1ccc(Cl)cc1
inactive: dose: 100.0 mg/kg/injection, schedule: Q04DX002 (ip), vehicle: other 91 % of control | dose: 200.0 mg/kg/injection, schedule: Q04DX002 (ip), vehicle: other 98 % of control | dose: 400.0 mg/kg/injection, schedule: Q04DX002 (ip), vehicle: other 102 % of control

NC(=O)c1ccc[n+](CCCl)c1
inactive: dose: 62.5 mg/kg/injection, schedule: Q01DX010 (ip), vehicle: saline 94 % of control | dose: 125.0 mg/kg/injection, schedule: Q01DX010 (ip), vehicle: saline 93 % of control

O=C(NCCCCCCNC(=O)NCCN1CCOCC1)NCCN1CCOCC1
inactive: dose: 100.0 mg/kg/injection, schedule: Q04DX002 (ip), vehicle: Klucel (hydroxypropylcellulose) (HPC) 94 % of control | dose: 200.0 mg/kg/injection, schedule: Q04DX002 (ip), vehicle: Klucel (hydroxypropylcellulose) (HPC) 105 % of control | dose: 400.0 mg/kg/injection, schedule: Q04DX002 (ip), vehicle: Klucel (hydroxypropylcellulose) (HPC) 97 % of control

COc1ccc(CCN(C)C2CC3CCC2(C)C3(C)C)cc1OC (stereo not drawn)
inactive: [2] 93 % of control | [3] 96 % of control | [4] 100 % of control

CCN(CC)CCNCc1ccc(Cl)cc1
inactive: dose: 25.0 mg/kg/injection, schedule: Q04DX003 (ip), vehicle: Klucel (hydroxypropylcellulose) (HPC) 92 % of control | dose: 50.0 mg/kg/injection, schedule: Q04DX003 (ip), vehicle: Klucel (hydroxypropylcellulose) (HPC) 96 % of control | [1] 96 % of control and 103 % of control
